Results: the supplement of paper PMC4862054

Test system: CAL-85-1
Assay: normalised response (% of control), CellTiter-Glo; higher = more viable cells (100 = DMSO, 0 = benzethonium chloride kill control)
Settings: incubation time: 72 h
In short: (§1)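 Normalised signals at single concentrations make up the values. They come from breast cancer cell lines seeded (20 µl suspension) into 384-well plates with compound at 5 concentrations in 10-fold steps over a compound-specific 10,000-fold range, incubated 72 h, and read for CellTox Green fluorescence then CellTiter-Glo luminescence. Each plate was normalised to 0.1 % DMSO (100) and a positive kill control (0).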

Row | SMILES | normalised response [%]
1 | COc1cc(Nc2ncc(F)c(Nc3ccc4c(n3)N(COP(=O)(O)O)C(=O)C(C)(C)O4)n2)cc(OC)c1OC [Fostamatinib] (250 nM) | 96.1
2 | CC(C)NC[C@@H](C(=O)N1CCN(c2ncnc3c2[C@H](C)C[C@H]3O)CC1)c1ccc(Cl)cc1 [GDC-0068] (1000 nM) | 85.8
3 | CCCc1cc(C)[nH]c(=O)c1CNC(=O)c1cc(-c2ccnc(N3CCN(C)CC3)c2)cc2c1cnn2C(C)C [GSK343] (1000 nM) | 101
4 | COc1cc2c(cc1-c1c(C)noc1C)ncc1[nH]c(=O)n([C@H](C)c3ccccn3)c12 [I-BET151] (1000 nM) | 57.4
5 | CN1CCc2c(c3ccccc3n2Cc2ccc(C(=O)NO)cc2)C1 [Tubastatin A] (1000 nM) | 94.7

Test system: DU-4475
Assay: as above
Settings: incubation time: 72 h
In short: as §1

Row | SMILES | normalised response [%]
6 | CC(C)(C)Cn1c(N)nc2ccc(-c3[nH]c(C(C)(C)C)nc3-c3ccc(F)cc3)nc21 (1000 nM) | 94.8
7 | Cn1cc(C[C@@H](N)C(=O)O)c2ccccc21 [1-methyl-D-tryptophan] (500 nM) | 94.4
8 | CC[C@H](CC#N)OC(=O)N[C@@H](C)c1cccc(NC(=O)Nc2ccc(-c3cnco3)c(OC)c2)c1 [AVN944] (1000 nM) | 29.2
9 | CCc1cnn2c(NCc3ccc[n+]([O-])c3)cc(N3CCCC[C@H]3CCO)nc12 [Dinaciclib] (100 nM) | 18.6
10 | COc1cc(Nc2ncc(F)c(Nc3ccc4c(n3)N(COP(=O)(O)O)C(=O)C(C)(C)O4)n2)cc(OC)c1OC [Fostamatinib] (250 nM) | 94.8
11 | CC(C)NC[C@@H](C(=O)N1CCN(c2ncnc3c2[C@H](C)C[C@H]3O)CC1)c1ccc(Cl)cc1 [GDC-0068] (1000 nM) | 91.9
12 | CCCc1cc(C)[nH]c(=O)c1CNC(=O)c1cc(-c2ccnc(N3CCN(C)CC3)c2)cc2c1cnn2C(C)C [GSK343] (1000 nM) | 89.5
13 | COc1cc2c(cc1-c1c(C)noc1C)ncc1[nH]c(=O)n([C@H](C)c3ccccn3)c12 [I-BET151] (1000 nM) | 82.9
14 | CN1CCc2c(c3ccccc3n2Cc2ccc(C(=O)NO)cc2)C1 [Tubastatin A] (1000 nM) | 96.5

Test system: HCC1143
Assay: as above
Settings: incubation time: 72 h
In short: as §1

Row | SMILES | normalised response [%]
15 | CC(C)(C)Cn1c(N)nc2ccc(-c3[nH]c(C(C)(C)C)nc3-c3ccc(F)cc3)nc21 (1000 nM) | 98
16 | Cn1cc(C[C@@H](N)C(=O)O)c2ccccc21 [1-methyl-D-tryptophan] (500 nM) | 94.8
17 | CC[C@H](CC#N)OC(=O)N[C@@H](C)c1cccc(NC(=O)Nc2ccc(-c3cnco3)c(OC)c2)c1 [AVN944] (1000 nM) | 42.3
18 | CCc1cnn2c(NCc3ccc[n+]([O-])c3)cc(N3CCCC[C@H]3CCO)nc12 [Dinaciclib] (100 nM) | 18.8
19 | COc1cc(Nc2ncc(F)c(Nc3ccc4c(n3)N(COP(=O)(O)O)C(=O)C(C)(C)O4)n2)cc(OC)c1OC [Fostamatinib] (250 nM) | 95
20 | CC(C)NC[C@@H](C(=O)N1CCN(c2ncnc3c2[C@H](C)C[C@H]3O)CC1)c1ccc(Cl)cc1 [GDC-0068] (1000 nM) | 89.3
21 | CCCc1cc(C)[nH]c(=O)c1CNC(=O)c1cc(-c2ccnc(N3CCN(C)CC3)c2)cc2c1cnn2C(C)C [GSK343] (1000 nM) | 95.3
22 | COc1cc2c(cc1-c1c(C)noc1C)ncc1[nH]c(=O)n([C@H](C)c3ccccn3)c12 [I-BET151] (1000 nM) | 87.3
23 | CN1CCc2c(c3ccccc3n2Cc2ccc(C(=O)NO)cc2)C1 [Tubastatin A] (1000 nM) | 94.3

Test system: HCC1599
Assay: as above
Settings: incubation time: 72 h
In short: as §1

Row | SMILES | normalised response [%]
24 | CC(C)(C)Cn1c(N)nc2ccc(-c3[nH]c(C(C)(C)C)nc3-c3ccc(F)cc3)nc21 (1000 nM) | 111
25 | Cn1cc(C[C@@H](N)C(=O)O)c2ccccc21 [1-methyl-D-tryptophan] (500 nM) | 115
26 | CC[C@H](CC#N)OC(=O)N[C@@H](C)c1cccc(NC(=O)Nc2ccc(-c3cnco3)c(OC)c2)c1 [AVN944] (1000 nM) | 48.1
27 | CCc1cnn2c(NCc3ccc[n+]([O-])c3)cc(N3CCCC[C@H]3CCO)nc12 [Dinaciclib] (100 nM) | 10.5
28 | COc1cc(Nc2ncc(F)c(Nc3ccc4c(n3)N(COP(=O)(O)O)C(=O)C(C)(C)O4)n2)cc(OC)c1OC [Fostamatinib] (250 nM) | 110
29 | CC(C)NC[C@@H](C(=O)N1CCN(c2ncnc3c2[C@H](C)C[C@H]3O)CC1)c1ccc(Cl)cc1 [GDC-0068] (1000 nM) | 103
30 | CCCc1cc(C)[nH]c(=O)c1CNC(=O)c1cc(-c2ccnc(N3CCN(C)CC3)c2)cc2c1cnn2C(C)C [GSK343] (1000 nM) | 95.9
31 | COc1cc2c(cc1-c1c(C)noc1C)ncc1[nH]c(=O)n([C@H](C)c3ccccn3)c12 [I-BET151] (1000 nM) | 97.3
32 | CN1CCc2c(c3ccccc3n2Cc2ccc(C(=O)NO)cc2)C1 [Tubastatin A] (1000 nM) | 104

Test system: HCC1937
Assay: as above
Settings: incubation time: 72 h
In short: as §1

Row | SMILES | normalised response [%]
33 | CC(C)(C)Cn1c(N)nc2ccc(-c3[nH]c(C(C)(C)C)nc3-c3ccc(F)cc3)nc21 (1000 nM) | 93.6
34 | Cn1cc(C[C@@H](N)C(=O)O)c2ccccc21 [1-methyl-D-tryptophan] (500 nM) | 99.3
35 | CC[C@H](CC#N)OC(=O)N[C@@H](C)c1cccc(NC(=O)Nc2ccc(-c3cnco3)c(OC)c2)c1 [AVN944] (1000 nM) | 52.7
36 | CCc1cnn2c(NCc3ccc[n+]([O-])c3)cc(N3CCCC[C@H]3CCO)nc12 [Dinaciclib] (100 nM) | 27.6
37 | COc1cc(Nc2ncc(F)c(Nc3ccc4c(n3)N(COP(=O)(O)O)C(=O)C(C)(C)O4)n2)cc(OC)c1OC [Fostamatinib] (250 nM) | 94.9
38 | CC(C)NC[C@@H](C(=O)N1CCN(c2ncnc3c2[C@H](C)C[C@H]3O)CC1)c1ccc(Cl)cc1 [GDC-0068] (1000 nM) | 79
39 | CCCc1cc(C)[nH]c(=O)c1CNC(=O)c1cc(-c2ccnc(N3CCN(C)CC3)c2)cc2c1cnn2C(C)C [GSK343] (1000 nM) | 103
40 | COc1cc2c(cc1-c1c(C)noc1C)ncc1[nH]c(=O)n([C@H](C)c3ccccn3)c12 [I-BET151] (1000 nM) | 79.5
41 | CN1CCc2c(c3ccccc3n2Cc2ccc(C(=O)NO)cc2)C1 [Tubastatin A] (1000 nM) | 92.9
